Experimental data: PubChem BioAssay (NCI)
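Assay format: 96-well plates, 48-hour exposure. TGI: total growth inhibition.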

Tests used:
Test in all cases: inhibition of tumour cell growth, NCI panel, 48 h
[1] = tested on: MCF7 breast
[2] = tested on: CCRF-CEM leukemia
[3] = tested on: SF-295 CNS
[4] = tested on: OVCAR-8 ovarian
[5] = tested on: TK-10 renal
[6] = tested on: T-47D breast
[7] = tested on: HL-60(TB) leukemia
[8] = tested on: OVCAR-4 ovarian
[9] = tested on: DU-145 prostate
[10] = tested on: HOP-62 NSCLC
[11] = tested on: HT29 colon
[12] = tested on: MOLT-4 leukemia
[13] = tested on: UACC-62 melanoma
[14] = tested on: SK-MEL-28 melanoma
[15] = tested on: NCI-H460 lung
[16] = tested on: NCI-H23 lung
[17] = tested on: LOX IMVI melanoma
[18] = tested on: HCT-116 colon
[19] = tested on: NCI-H226 lung
[20] = tested on: NCI-H522 lung
[21] = tested on: SK-MEL-2 melanoma
[22] = tested on: HCT-15 colon
[23] = tested on: SK-OV-3 ovarian
[24] = tested on: KM12 colon
[25] = tested on: RPMI-8226 leukemia
[26] = tested on: M14 melanoma
[27] = tested on: BT-549 breast
[28] = tested on: K-562 leukemia
[29] = tested on: U251 CNS
[30] = tested on: MDA-N
[31] = tested on: SW-620 colon
[32] = tested on: OVCAR-5 ovarian
[33] = tested on: HCC-2998 colon
[34] = tested on: COLO 205 colon
[35] = tested on: SNB-19 CNS
[36] = tested on: MDA-MB-231 breast
[37] = tested on: HS 578T breast
[38] = tested on: UACC-257 melanoma
[39] = tested on: A498 renal
[40] = tested on: SF-268 CNS
[41] = tested on: MALME-3M melanoma
[42] = tested on: SK-MEL-5 melanoma
[43] = tested on: MDA-MB-435
[44] = tested on: SN12C renal
[45] = tested on: SR leukemia
[46] = tested on: PC-3 prostate
[47] = tested on: CAKI-1 renal
[48] = tested on: SF-539 CNS
[49] = tested on: A549 NSCLC
[50] = tested on: ACHN renal
[51] = tested on: 786-0 renal
[52] = tested on: EKVX NSCLC
[53] = tested on: SNB-75 CNS
[54] = tested on: OVCAR-3 ovarian
[55] = tested on: IGROV1 ovarian
[56] = tested on: UO-31 renal
[57] = tested on: NCI/ADR-RES ovarian
[58] = tested on: RXF 393 renal
[59] = tested on: HOP-92 NSCLC

Q: `Cc1cccc(C)c1NC(=O)/C=C/c1ccccc1` was tested. Which TGI [1] did it give?
A: > 100 µM

Q: And the TGI [2]?
A: > 100 µM

Q: And the TGI [3]?
A: > 100 µM

Q: What about the TGI [4] of the same compound?
A: > 100 µM

Q: And the TGI [5]?
A: > 100 µM

Q: And the TGI [6]?
A: > 100 µM

Q: And the TGI [7]?
A: > 100 µM

Q: And the TGI [8]?
A: > 100 µM

Q: And the TGI [9]?
A: > 100 µM

Q: And the TGI [10]?
A: > 100 µM

Q: What about the TGI [11] of the same compound?
A: > 100 µM

Q: And the TGI [12]?
A: > 100 µM

Q: What about the TGI [13] of the same compound?
A: > 100 µM

Q: And the TGI [14]?
A: > 100 µM

Q: And the TGI [15]?
A: > 100 µM

Q: What about the TGI [16] of the same compound?
A: > 100 µM

Q: And the TGI [17]?
A: > 100 µM

Q: What about the TGI [18] of the same compound?
A: > 100 µM

Q: And the TGI [19]?
A: > 100 µM

Q: And the TGI [20]?
A: > 100 µM

Q: What about the TGI [21] of the same compound?
A: > 100 µM

Q: And the TGI [22]?
A: > 100 µM

Q: What about the TGI [23] of the same compound?
A: > 100 µM

Q: What about the TGI [24] of the same compound?
A: > 100 µM

Q: And the TGI [25]?
A: > 100 µM

Q: And the TGI [26]?
A: > 100 µM

Q: What about the TGI [27] of the same compound?
A: > 100 µM

Q: And the TGI [28]?
A: > 100 µM

Q: And the TGI [29]?
A: > 100 µM

Q: And the TGI [30]?
A: > 100 µM

Q: And the TGI [31]?
A: > 100 µM

Q: And the TGI [32]?
A: > 100 µM

Q: What about the TGI [33] of the same compound?
A: > 100 µM

Q: And the TGI [34]?
A: > 100 µM

Q: What about the TGI [35] of the same compound?
A: > 100 µM

Q: What about the TGI [36] of the same compound?
A: > 100 µM

Q: And the TGI [37]?
A: > 100 µM

Q: And the TGI [38]?
A: > 100 µM

Q: And the TGI [39]?
A: > 100 µM

Q: And the TGI [40]?
A: > 100 µM

Q: What about the TGI [41] of the same compound?
A: > 100 µM

Q: And the TGI [42]?
A: > 100 µM

Q: What about the TGI [43] of the same compound?
A: > 100 µM

Q: And the TGI [44]?
A: > 100 µM

Q: What about the TGI [45] of the same compound?
A: > 100 µM

Q: And the TGI [46]?
A: > 100 µM

Q: And the TGI [47]?
A: > 100 µM

Q: What about the TGI [48] of the same compound?
A: > 100 µM

Q: And the TGI [49]?
A: > 100 µM

Q: And the TGI [50]?
A: > 100 µM

Q: And the TGI [51]?
A: > 100 µM

Q: What about the TGI [52] of the same compound?
A: > 100 µM

Q: And the TGI [53]?
A: > 100 µM

Q: What about the TGI [54] of the same compound?
A: > 100 µM

Q: Which results are given for `CN1C(=O)C(O)CC1c1ccc(C(F)(F)F)cc1` (stereo not given)?
A: TGI [1]: > 100 µM; TGI [2]: > 100 µM; TGI [3]: > 100 µM; TGI [4]: > 100 µM; TGI [5]: > 100 µM; TGI [6]: > 100 µM; TGI [7]: > 100 µM; TGI [8]: > 100 µM; TGI [9]: > 100 µM; TGI [10]: > 100 µM; TGI [11]: > 100 µM; TGI [12]: > 100 µM; TGI [13]: > 100 µM; TGI [14]: > 100 µM; TGI [15]: > 100 µM; TGI [16]: > 100 µM; TGI [17]: > 100 µM; TGI [18]: > 100 µM; TGI [19]: > 100 µM; TGI [20]: > 100 µM; TGI [21]: > 100 µM; TGI [22]: > 100 µM; TGI [55]: > 100 µM; TGI [23]: > 100 µM; TGI [24]: > 100 µM; TGI [25]: > 100 µM; TGI [26]: > 100 µM; TGI [27]: > 100 µM; TGI [28]: > 100 µM; TGI [56]: > 100 µM; TGI [29]: > 100 µM; TGI [30]: > 100 µM; TGI [31]: > 100 µM; TGI [32]: > 100 µM; TGI [33]: > 100 µM; TGI [34]: > 100 µM; TGI [35]: > 100 µM; TGI [57]: > 100 µM; TGI [36]: > 100 µM; TGI [37]: > 100 µM; TGI [38]: > 100 µM; TGI [39]: > 100 µM; TGI [40]: > 100 µM; TGI [58]: > 100 µM; TGI [59]: > 100 µM; TGI [41]: > 100 µM; TGI [42]: > 100 µM; TGI [43]: > 100 µM; TGI [44]: > 100 µM; TGI [46]: > 100 µM; TGI [47]: > 100 µM; TGI [48]: > 100 µM; TGI [49]: > 100 µM; TGI [50]: > 100 µM; TGI [51]: > 100 µM; TGI [52]: > 100 µM; TGI [53]: > 100 µM; TGI [54]: > 100 µM

Q: With `COc1ccc2c(N=[N+]=[N-])c(-c3ccccc3)c(=O)oc2c1` as the compound, how does the TGI [1] read?
A: > 100 µM

Q: And the TGI [2]?
A: > 100 µM

Q: What about the TGI [3] of the same compound?
A: > 100 µM

Q: And the TGI [4]?
A: > 100 µM

Q: What about the TGI [5] of the same compound?
A: > 100 µM

Q: What about the TGI [6] of the same compound?
A: > 100 µM

Q: And the TGI [7]?
A: 60.3 µM

Q: What about the TGI [9] of the same compound?
A: > 100 µM

Q: And the TGI [10]?
A: > 100 µM

Q: What about the TGI [11] of the same compound?
A: > 100 µM

Q: What about the TGI [12] of the same compound?
A: 73.1 µM

Q: What about the TGI [13] of the same compound?
A: > 100 µM

Q: And the TGI [14]?
A: > 100 µM

Q: What about the TGI [15] of the same compound?
A: > 100 µM

Q: And the TGI [16]?
A: > 100 µM

Q: And the TGI [17]?
A: > 100 µM

Q: What about the TGI [18] of the same compound?
A: > 100 µM

Q: And the TGI [20]?
A: > 100 µM

Q: What about the TGI [22] of the same compound?
A: > 100 µM

Q: And the TGI [55]?
A: > 100 µM

Q: And the TGI [23]?
A: > 100 µM

Q: What about the TGI [24] of the same compound?
A: > 100 µM

Q: And the TGI [25]?
A: > 100 µM

Q: And the TGI [26]?
A: > 100 µM

Q: And the TGI [27]?
A: > 100 µM

Q: And the TGI [28]?
A: > 100 µM

Q: What about the TGI [30] of the same compound?
A: > 100 µM

Q: And the TGI [31]?
A: > 100 µM

Q: What about the TGI [33] of the same compound?
A: > 100 µM

Q: What about the TGI [34] of the same compound?
A: > 100 µM

Q: And the TGI [36]?
A: > 100 µM

Q: What about the TGI [37] of the same compound?
A: > 100 µM

Q: And the TGI [38]?
A: 85.6 µM

Q: What about the TGI [39] of the same compound?
A: > 100 µM

Q: And the TGI [40]?
A: > 100 µM

Q: And the TGI [41]?
A: > 100 µM

Q: And the TGI [42]?
A: 77.3 µM

Q: And the TGI [43]?
A: > 100 µM

Q: And the TGI [44]?
A: > 100 µM

Q: What about the TGI [45] of the same compound?
A: 67.1 µM

Q: What about the TGI [46] of the same compound?
A: > 100 µM

Q: What about the TGI [47] of the same compound?
A: > 100 µM

Q: What about the TGI [48] of the same compound?
A: > 100 µM

Q: And the TGI [49]?
A: > 100 µM

Q: And the TGI [50]?
A: > 100 µM

Q: What about the TGI [51] of the same compound?
A: > 100 µM

Q: And the TGI [52]?
A: > 100 µM

Q: What about the TGI [53] of the same compound?
A: > 100 µM
